± gives the expanded uncertainty stated by the source.
Legend:
[1] = refractive index (Na D-line) (dimensionless); xn = mol fraction of the nth substance listed; settings: 298.15 K; 100 kPa; Liquid; Standard Abbe refractometry; x1 = 1
[2] = xn = mol fraction of the nth substance listed; settings: 298.15 K; 100 kPa; Liquid; Falling or rolling sphere viscometry; x1 = 1
[3] = refractive index (Na D-line) (dimensionless); settings: 298.15 K; 100 kPa; Liquid; Standard Abbe refractometry
[4] = Liquid; for viscosity: Falling or rolling sphere viscometry; for mass density: Vibrating tube method

SMILES | refractive index [1] | viscosity [2] [mPa·s] | refractive index [3] | viscosity ([4]; 298.15 K, 100 kPa) [mPa·s] | viscosity ([4]; 288.15 K, 101.33 kPa) [mPa·s] | mass density ([4]; 288.15 K, 101.33 kPa) [kg/m3] | viscosity ([4]; 293.15 K, 101.33 kPa) [mPa·s] | mass density ([4]; 293.15 K, 101.33 kPa) [kg/m3] | viscosity ([4]; 298.15 K, 101.33 kPa) [mPa·s] | mass density ([4]; 298.15 K, 101.33 kPa) [kg/m3] | viscosity ([4]; 303.15 K, 101.33 kPa) [mPa·s] | mass density ([4]; 303.15 K, 101.33 kPa) [kg/m3] | viscosity ([4]; 308.15 K, 101.33 kPa) [mPa·s] | mass density ([4]; 308.15 K, 101.33 kPa) [kg/m3] | viscosity ([4]; 313.15 K, 101.33 kPa) [mPa·s] | mass density ([4]; 313.15 K, 101.33 kPa) [kg/m3] | viscosity ([4]; 318.15 K, 101.33 kPa) [mPa·s] | mass density ([4]; 318.15 K, 101.33 kPa) [kg/m3]
O [water] + CCn1cc[n+](C)c1.N#C[C-](C#N)C#N | 1.33252 ± 0.00035 | 0.89 ± 0.02 |  |  |  |  |  |  |  |  |  |  |  |  |  |  |  | 
O [water] |  |  | 1.33252 ± 0.00035 | 0.89 ± 0.02 |  |  |  |  |  |  |  |  |  |  |  |  |  | 
CCn1cc[n+](C)c1.N#C[C-](C#N)C#N [1-ethyl-3-methyl-1H-imidazolium tricyanomethanide] |  |  | 1.51227 ± 0.00036 |  | 19.9 ± 0.43 | 1088.49 ± 0.15 | 16.54 ± 0.35 | 1084.93 ± 0.15 | 14 ± 0.3 | 1081.38 ± 0.15 | 11.99 ± 0.26 | 1077.84 ± 0.15 | 10.32 ± 0.22 | 1074.33 ± 0.15 | 8.9 ± 0.19 | 1070.83 ± 0.15 | 7.82 ± 0.17 | 1067.35 ± 0.14
